Test results reported in article PMC3527451, “A Pilot Randomized, Placebo Controlled, Double Blind Phase I Trial of the Novel SIRT1 Activator SRT2104 in Elderly Volunteers” (PLoS ONE, 2012).
Entries after “also recorded” stand apart in the source; their conditions may differ. Read-outs that look alike come from different tables or passages of the source.

Experiments:
[1] = cited from earlier work
[2] = Plasma pharmacokinetics of SRT2104, once daily oral dosing for 28 days in elderly volunteers; assay type: in vivo, human; details: for AUC(0-∞), Geometric Least Square Mean: Day 1, AUC(0-∞); for AUC(0-t)_D, dose-normalized Geometric Least Square Mean / AUC(0-∞)_D, dose-normalized Geometric Least Square Mean / Cmax_D, dose-normalized Geometric Least Square Mean / AUC(0-τ)_D, dose-normalized Geometric Least Square Mean: normalized to 0.5 g
Description: This was a phase I, single-center, double-blind, randomized, placebo-controlled, parallel-arm study to assess the safety, tolerability, pharmacokinetic and initial pharmacodynamic properties of […] Pharmaceuticals, Cambridge, MA, USA) administered for the first time to male and female elderly volunteers 60 to 80 years of age. Volunteers were enrolled between 01 Oct 2009 and 5 Feb 2010. […] The selection of the doses investigated in this study was based upon safety and pharmacokinetic data obtained from a previous clinical study involving SRT2104 [19]. Suitability of participants was defined on the basis of a medical history, physical examination, vital signs, electrocardiogram and laboratory measurements. Subjects were required to have normal fasting glucose levels (4.4 to 6.0 mmol/L) at screening and a body mass index of at least 18 kg/m^2 and no greater than 30 kg/m^2. […] Subjects were deemed ineligible if they participated in any clinical trial with an investigative medicinal product within the past three months prior to the first dose in the current study, had been exposed to more than three new chemical entities within 12 months of enrollment, or used other concomitant medications and herbal products in the previous 3 months that in the opinion of the investigator could interfere with the study procedures or compromise subject safety. Additional exclusions included: women of childbearing potential and non-sterile men, unless they agreed to use acceptable method of contraception; history of alcoholism or drug abuse (including a positive pre-study drug/alcohol test at screening); use of tobacco or nicotine products; history of complications when donating blood or known relative inaccessibility of veins for venipuncture; donation of blood within three months of enrolment; history of significant drug or other allergies. Participants were asked to maintain their usual level of physical activity for the duration of the study. During the treatment phase of the study (days 1 to 28 inclusive), test material (SRT2104 or placebo) was supplied as 250 mg capsules and was administered at approximately the same time every morning, approximately 15 minutes following consumption of a standardized meal (Ensure Plus®, a high energy, high protein liquid meal replacement product providing approximately 650 kcal with approximately 30% of calories derived from fat). Subjects were not permitted to consume additional calories for at least 1-2 hours after dosing, although water was permitted ad libitum. Subjects were also instructed to refrain from caffeine and alcohol for 24 hours prior to screening and during assessments visits. The test material was administered within the investigation clinical unit on the days when serial pharmacokinetic sampling was performed (days 1-2 and 28-29) and at home on the remaining days (days 3-27). A diary card was provided to volunteers to confirm daily consumption of the standardized meal, as well as time of dose and number of capsules taken. Missing doses were recorded. Pharmacokinetic samples were collected through 24 hours post-dose on the first and last day of the dosing period (immediately prior to dosing and at 15, 30 minutes and 1, 2, 3, 4, 8, 12 and 24 hours post-dose). Blood samples for pharmacokinetic analysis were collected in pre-labelled lithium heparin heparin Vacutainers for pharmacokinetic analysis (∼4 mL per draw). Each sample was separated by centrifugation at 1500×g and 4°C for 10 minutes. Two equal aliquots of plasma were transferred to polypropylene vials labelled identically to the original blood sample and stored at approximately -20°C for subsequent analysis of plasma SRT2104 concentration. The bio-analysis was performed by Simbec Research Ltd, […], South Wales, UK. Pharmacokinetic parameters for SRT2104 were derived from non-compartmental methods using WinNonLin v5.2 (Pharsight Corporation, Mountain View, CA, USA). […]

[3] = 0.5 or 2.0 g once daily, abstract summary

In the case of `Cc1nc(-c2cccnc2)sc1C(=O)Nc1ccccc1-c1cn2c(CN3CCOCC3)csc2n1` [SRT2104], the “dose proportionality of AUC(0-t) and Cmax” value ([1]; dose range 0.03 to 1.0 g/day) is listed as “approximate dose proportionality”, the “dose proportionality of AUC(0-t) and Cmax” value ([1]; doses greater than 1.0 g/day up to 3.0 g/day) is listed as “less than dose proportional increase between 1.0–3.0 g/day” and the “effect of dose on elimination half-life (t1/2)” value ([1]; doses up to 3.0 g/day) is listed as “not affected by dose; also recorded: similar”. For the same molecule, the “terminal elimination half-life (t½)” value ([1]; healthy male volunteers, 0.03 – 3.0 g/day, liquid suspension, ref SRT-2104-001 (19)) was 8 to 24 h, the “Tmax (mean peak plasma concentration)” value ([2]; 0.5 g/day group) was 2 to 4 h and the “between-subject variability for AUC(0–24), geometric mean CV” value ([2]; 0.5 g/day group) was 140%. For the same molecule, the “t1/2 of one subject” value ([2]; 0.5 g/day group, after first administration) was 29.7 h, the “t1/2 of one subject” value ([2]; 0.5 g/day group, after repeated administrations) was 28.3 h and the “AUC(0-t), Geometric Least Square Mean” value ([2]; 0.5 g/day, Day 1) was 1950.07 ng·h/mL. The “Cmax, Geometric Least Square Mean” value ([2]; 0.5 g/day, Day 1) was 326.22 ng/mL, the “AUC(0-∞), Geometric Least Square Mean” value ([2]; 0.5 g/day) was 2503.70 ng·h/mL and the “AUC0-∞” value ([2]; 0.5 g/day, Day 1, geometric mean) was 1790.8 ng·h/mL. The AUC0-t ([2]; 0.5 g/day, Day 1, mean) was 1872.9 ng·h/mL, the CL/F ([2]; 0.5 g/day, Day 1, mean) was 594.2 L/h and the Cmax ([2]; 0.5 g/day, Day 1, mean) was 343.4 ng/mL. For the same molecule, the t1/2 ([2]; 0.5 g/day, Day 1, mean) was 14.9 h, the tmax ([2]; 0.5 g/day, Day 1, median) was 3.0 h and the “AUC(0-t), Geometric Least Square Mean” value ([2]; 0.5 g/day, Day 28) was 1610.10 ng·h/mL. For the same molecule, the “Cmax, Geometric Least Square Mean” value ([2]; 0.5 g/day, Day 28) was 199.12 ng/mL, the “AUC0-∞” value ([2]; 0.5 g/day, Day 28, geometric mean) was 2687.8 ng·h/mL and the AUC0-t ([2]; 0.5 g/day, Day 28, mean) was 2280.4 ng·h/mL. For the same molecule, the CL/F ([2]; 0.5 g/day, Day 28, mean) was 566.9 L/h, the Cmax ([2]; 0.5 g/day, Day 28, mean) was 373.4 ng/mL and the t1/2 ([2]; 0.5 g/day, Day 28, mean) was 17.5 h. For the same molecule, the tmax ([2]; 0.5 g/day, Day 28, median) was 3.0 h, the “Mean Tmax” value [2, 3] was 2 to 4 h and the elimination half-life [2, 3] was 15 to 20 h. For the same molecule, the “dose proportionality of exposure (Cmax, AUC)” value ([2]; 0.5 to 2.0 g/day) was “less than dose-proportionally; also recorded: less than dose proportional increase in exposure”, the “between-subject variability for AUC(0–24), geometric mean CV” value ([2]; 2.0 g/day group) was 102% and the “Tmax (apparent mean rise to peak concentration)” value ([2]; 2.0 g/day group, after the first dose) was 2 to 8 h. The “AUC(0-t), Geometric Least Square Mean” value ([2]; 2.0 g/day, Day 1) was 1743.14 ng·h/mL, the “Cmax, Geometric Least Square Mean” value ([2]; 2.0 g/day, Day 1) was 301.28 ng/mL and the “AUC(0-∞), Geometric Least Square Mean” value ([2]; 2.0 g/day) was 1788.42 ng·h/mL. For the same molecule, the “AUC0-∞” value ([2]; 2.0 g/day, Day 1, geometric mean) was 2073.5 ng·h/mL, the AUC0-t ([2]; 2.0 g/day, Day 1, mean) was 3249.2 ng·h/mL and the CL/F ([2]; 2.0 g/day, Day 1, mean) was 1624.4 L/h. It also gave a Cmax ([2]; 2.0 g/day, Day 1, mean) of 477.6 ng/mL, a t1/2 ([2]; 2.0 g/day, Day 1, mean) of 15.1 h and a tmax ([2]; 2.0 g/day, Day 1, median) of 3.0 h. For the same molecule, the “AUC(0-t), Geometric Least Square Mean” value ([2]; 2.0 g/day, Day 28) was 3577.50 ng·h/mL, the “Cmax, Geometric Least Square Mean” value ([2]; 2.0 g/day, Day 28) was 389.50 ng/mL and the “AUC0-∞” value ([2]; 2.0 g/day, Day 28, geometric mean) was 7729.6 ng·h/mL. The AUC0-t ([2]; 2.0 g/day, Day 28, mean) was 4797.4 ng·h/mL, the CL/F ([2]; 2.0 g/day, Day 28, mean) was 789.6 L/h and the Cmax ([2]; 2.0 g/day, Day 28, mean) was 572.4 ng/mL. For the same molecule, the t1/2 ([2]; 2.0 g/day, Day 28, mean) was 21.6 h, the tmax ([2]; 2.0 g/day, Day 28, median) was 3.0 h and the “increase in mean AUC(0–24) relative to the first day of dosing” value ([2]; 2.0 g/day, repeat administration) was “approximately two-fold increases”. The “AUC(0-t)_D, dose-normalized Geometric Least Square Mean” value ([2]; Day 1, 0.5 g/day) was 1297.86 ng·h/mL, the “AUC(0-∞)_D, dose-normalized Geometric Least Square Mean” value ([2]; Day 1, 0.5 g/day) was 1754.57 ng·h/mL and the “Cmax_D, dose-normalized Geometric Least Square Mean” value ([2]; Day 1, 0.5 g/day) was 215.74 ng/mL. The “AUC(0-t)_D, dose-normalized Geometric Least Square Mean” value ([2]; Day 1, 2.0 g/day) was 516.59 ng·h/mL, the “AUC(0-∞)_D, dose-normalized Geometric Least Square Mean” value ([2]; Day 1, 2.0 g/day) was 504.43 ng·h/mL and the “Cmax_D, dose-normalized Geometric Least Square Mean” value ([2]; Day 1, 2.0 g/day) was 69.64 ng/mL. The “AUC(0-t)_D, % Ratio (90% C.I.) 2.0 g/0.5 g” value ([2]; Day 1, dose proportionality) was 39.80 (14.39–110.07) %, the “AUC(0-∞)_D, % Ratio (90% C.I.) 2.0 g/0.5 g” value ([2]; Day 1, dose proportionality) was 28.75 (9.56–86.49) % and the “Cmax_D, % Ratio (90% C.I.) 2.0 g/0.5 g” value ([2]; Day 1, dose proportionality) was 32.28 (10.41–100.15) %. The “AUC(0-t)_D, dose-normalized Geometric Least Square Mean” value ([2]; Day 28, 0.5 g/day) was 1548.09 ng·h/mL, the “AUC(0-τ)_D, dose-normalized Geometric Least Square Mean” value ([2]; Day 28, 0.5 g/day) was 1548.74 ng·h/mL and the “AUC(0-∞)_D, dose-normalized Geometric Least Square Mean” value ([2]; Day 28, 0.5 g/day) was 2636.12 ng·h/mL. For the same molecule, the “Cmax_D, dose-normalized Geometric Least Square Mean” value ([2]; Day 28, 0.5 g/day) was 206.06 ng/mL, the “AUC(0-t)_D, dose-normalized Geometric Least Square Mean” value ([2]; Day 28, 2.0 g/day) was 911.01 ng·h/mL and the “AUC(0-τ)_D, dose-normalized Geometric Least Square Mean” value ([2]; Day 28, 2.0 g/day) was 909.85 ng·h/mL. For the same molecule, the “AUC(0-∞)_D, dose-normalized Geometric Least Square Mean” value ([2]; Day 28, 2.0 g/day) was 1903.42 ng·h/mL, the “Cmax_D, dose-normalized Geometric Least Square Mean” value ([2]; Day 28, 2.0 g/day) was 96.83 ng/mL and the “AUC(0-t)_D, % Ratio (90% C.I.) 2.0 g/0.5 g” value ([2]; Day 28, dose proportionality) was 58.85 (25.18–137.51) %. For the same molecule, the “AUC(0-τ)_D, % Ratio (90% C.I.) 2.0 g/0.5 g” value ([2]; Day 28, dose proportionality) was 58.75 (25.10–137.52) %, the “AUC(0-∞)_D, % Ratio (90% C.I.) 2.0 g/0.5 g” value ([2]; Day 28, dose proportionality) was 72.21 (33.02–157.88) % and the “Cmax_D, % Ratio (90% C.I.) 2.0 g/0.5 g” value ([2]; Day 28, dose proportionality) was 46.99 (15.44–142.99) %. For the same molecule, the “Cmax, AUC(0-τ) and AUC(0–24) exposures in the 2.0 g/day group compared to the 0.5 g/day group” value ([2]; human, in vivo) was “approximately two-fold higher or less”, the “differences in exposure between men and women” value ([2]; human, in vivo) was “No apparent differences in exposure” and the apparent half-life ([2]; mono-exponential decline, both doses) was “approximately 15 hours”.
